{"source": "patent US9149424B2", "about": "“Compositions and methods for reducing hepatotoxicity associated with drug administration” (YALE UNIVERSITY, priority 2007, dated 2015)", "key": {"wild-type mice [1]": {"test_system": "wild-type mice", "experiment": "Acetaminophen (APAP) induced hepatotoxicity, survival over 72 hours", "assay_type": "in vivo, mouse", "experimental": "C57BL/6 mice were purchased from commercial sources. […] These mice have been described previously (39, 40). IL-1β was neutralized in by using the anti-IL-1β antibody from clone B122 (a gift of R. Schreiber, Washington University) at a dose of 0.2 mg/mouse iv twice a day for a total of 48 hours after giving APAP. Control mice received Armenian hamster isotype control antibody. For survival experiments animals were euthanized when they became moribund using criteria of lack of response to stimuli or lack of righting reflex. Animal protocols were approved by the Yale University animal care and use committee. [include references for IPAF−/− (M. Lara-Tejero et al. JEM 2006) and IL-18−/−. Need to add TLR9−/− and TLR3−/−]\n(§1) APAP (Sigma, Mo.) solution was made fresh for each experiment in PBS at 20 mg/ml and heated in a water bath to 55° C. to dissolve. APAP was dosed at 500 mg/kg and injected I.P after 15 hrs of starvation. Animals were euthanized by ketamine/xylazine injection at 12 hours for collection of serum, isolation of liver lymphocytes or collection of liver tissue for histology, or they were observed every four hours for 72 hours until they reached criteria for euthanasia (lack of response to stimuli or lack of righting reflex).\n(§2) Aspirin (Sigma, Mo.) was made fresh for each experiment. For dosing prior to APAP it was dissolved in single deionized water at 60 mg/l and heated to 42° C. with rapid stirring to dissolve, then rapidly placed in an ice water bath to cool. Aspirin in water was given to the mice 60-72 hours prior to APAP injection. Assuming water consumption of 3-5 ml per day this dose would be equivalent to a 300-500 mg dose in an 80 kg adult human. For co-administration of APAP and aspirin, aspirin was gavaged at a dose of 6 mg/kg in a volume of 100 ul of water immediately after ip injection of APAP. Clopidogrel (Gilead Pharmaceuticals, CA.) was dissolved in PBS at 6 mg/ml and administered by gavage of 100 ul, 30 mg/kg, every 24 hours beginning 48 hours prior and ending 24 hours after APAP injection. Cox-1 inhibitor (SC-560). SC-560 (Cayman chemical, MI) was dissolved at 50 mg/ml in DMSO and further dissolved in PBS in order to gavage a dose of 5 mg/kg in 100 ul."}, "mice and rats": {"test_system": "mice and rats", "conditions": "aspirin 200-600 mg/kg (dose range toxic to humans); cited from earlier work"}, "[2]": {"test_system": "pro-IL-1β transcript in THP1 cells", "experiment": "THP1 cells stimulated with LPS, real-time PCR pro-IL-1β", "assay_type": "cell-based, human", "conditions": "THP1 cells incubated overnight with aspirin (1.5 mM, 0.15 mM), then LPS 10 μg/ml 8 hours", "experimental": "The human monocytic cell line THP1 was maintained in RPMI with 10% FBS. Stimulation with LPS (Sigma, Mo.) was performed by plating cells at 5×10^5 per 24 well, incubating overnight with aspirin or control media prior to adding LPS at 10 μg/ml for 8 hours."}, "wild-type mice [3]": {"test_system": "wild-type mice", "experiment": "APAP induced hepatotoxicity, serum ALT at 12 hours", "assay_type": "in vivo, mouse", "conditions": "aspirin pre-treatment in drinking water; 12 hrs after APAP; P<0.04", "experimental": "as §1\nAspirin (Sigma, Mo.) was made fresh for each experiment. For dosing prior to APAP it was dissolved in single deionized water at 60 mg/l and heated to 42° C. with rapid stirring to dissolve, then rapidly placed in an ice water bath to cool. Aspirin in water was given to the mice 60-72 hours prior to APAP injection. Assuming water consumption of 3-5 ml per day this dose would be equivalent to a 300-500 mg dose in an 80 kg adult human. For co-administration of APAP and aspirin, aspirin was gavaged at a dose of 6 mg/kg in a volume of 100 ul of water immediately after ip injection of APAP. […]\n(§3) TLR9 antagonist (ODN2088, 50 microg×2) or PBS, were injected ip into wild-type mice immediately after and at 6 hours after APAP injection and total mouse liver was obtained 12 hours after APAP injection for quantitative Q-PCR for IL-1β. […]"}, "wild-type mice [4]": {"test_system": "wild-type mice", "experiment": "APAP induced hepatotoxicity, liver histology (H&E) at 12 hours", "assay_type": "in vivo, mouse", "conditions": "aspirin 60 mg/l in drinking water three days before APAP; 12 hours after APAP", "experimental": "as §1\nas §2, with “SC-560 (Cayman chemical, MI) was dissolved at 50 mg/ml in DMSO and further dissolved in PBS in order to gavage a dose of 5 mg/kg in 100 ul.” left out"}, "IL-1β": {"test_system": "IL-1β", "experiment": "ELISA for serum IL-1β after APAP", "assay_type": "in vivo, mouse", "conditions": "APAP with vs without ASA in drinking water; p<0.02", "description": "ELISA for serum IL1-β was carried out by standard protocols."}, "pro-IL-18 transcript": {"test_system": "pro-IL-18 transcript", "experiment": "Quantitative real-time PCR of total liver 12 hours after APAP, pro-IL-18", "assay_type": "in vivo, mouse", "conditions": "aspirin pre-treatment in drinking water", "experimental": "as §1\n(§4) Q-PCR was performed for IL-1β and IL-18 using commercial primer-probe sets (Applied Biosystems, Framingham, Mass.) and the Applied Biosystem 7500 real-time PCR system. Expression of glyceraldehyde 3-phosphate dehydrogenase was used to standardize the samples, and the results were expressed as a ratio compared with untreated HSCs. Quantitative Real-time PCR for mRNA expression of IL-18, IL-1β, TNF-α and IFN-γ. Total mouse liver was obtained 12 hours after APAP and cDNA was prepared. Quantitative real-time PCR (Q-PCR) was performed for IL-18 and IL-1β using commercial primer-probe sets (Applied Biosystems, Calif.) and the Applied Biosystem 7500 real time PCR system. Expression of GAPDH was used to standardize the samples, and the results were expressed as a ratio compared to control."}, "NALP3 inflammasome": {"test_system": "NALP3 inflammasome", "experiment": "Uric acid (MSU crystal) peritonitis, Gr-1 positive neutrophils in peritoneal lavage", "assay_type": "in vivo, mouse", "conditions": "low dose aspirin (60 mg/l) in drinking water for three days before MSU 3 mg ip; lavage at 3 hours", "experimental": "Peritonitis was induced with uric acid crystals as previously described by injecting 3 mg of MSU intraperitoneally per mouse (27). Three hours after injection peritoneal lavage was performed on mice euthanized by isoflurane inhalation. Neutrophil infiltration was evaluated by flow cytometry. The percent of Gr-1 (BD Pharmingen, CA) positive cells was multiplied by the total cell counts."}, "IFN-γ": {"test_system": "IFN-γ", "experiment": "Quantitative real-time PCR of total liver 12 hours after APAP, IFN-γ", "assay_type": "in vivo, mouse", "conditions": "aspirin pre-treatment", "experimental": "as §1, §4"}, "TNF-α": {"test_system": "TNF-α", "experiment": "Quantitative real-time PCR of total liver 12 hours after APAP, TNF-α", "assay_type": "in vivo, mouse", "conditions": "aspirin pre-treatment", "experimental": "as §1, §4"}, "pro-IL-1β transcript": {"test_system": "pro-IL-1β transcript", "experiment": "Quantitative real-time PCR of total liver 12 hours after APAP, pro-IL-1β", "assay_type": "in vivo, mouse", "conditions": "aspirin pre-treatment in drinking water", "experimental": "as §1, §3\nas §4, with “Total mouse liver was obtained 12 hours after APAP and cDNA was prepared.” left out, “Expression of GAPDH was used to standardize the samples, and the results were expressed as a ratio compared to control.” left out"}}, "note": "Entries after “also recorded” stand apart in the source; their conditions may differ."}
{"smiles": "COc1ccc(-n2nc(C(F)(F)F)cc2-c2ccc(Cl)cc2)cc1", "note": "[SC-560]", "values": [{"measurement": "protection against APAP toxicity (survival)", "setting": "wild-type mice [1]; SC-560 5 mg/kg gavage twice daily from 60 hours before to 48 hours after APAP, n=10 each, P<0.97", "value": "did not protect"}]}
{"smiles": "CC(=O)Oc1ccccc1C(=O)O", "note": "[aspirin, acetylsalicylic acid]", "values": [{"measurement": "liver injury from APAP", "setting": "mice and rats", "value": "reduce liver injury"}, {"measurement": "survival from APAP", "setting": "mice and rats", "value": "not improve survival"}, {"measurement": "LPS induced up-regulation of pro-IL-1β transcript", "setting": "[2]", "value": "reduced"}, {"measurement": "serum ALT", "setting": "wild-type mice [3]", "value": "significantly lower"}, {"measurement": "liver histology (liver injury and hemorrhage)", "setting": "wild-type mice [4]", "value": "significant reduction in APAP induced liver injury and hemorrhage; also recorded: markedly improved"}, {"measurement": "serum IL-1β levels", "setting": "IL-1β", "value": "significant reduction"}, {"measurement": "survival after APAP", "setting": "wild-type mice [1]; aspirin 60 mg/l in drinking water 3 days before APAP 500 mg/kg ip, control n=13, aspirin n=17, P<0.02", "value": "markedly improved survival"}, {"measurement": "survival", "setting": "wild-type mice [1]; aspirin given concordantly with APAP, 6 mg/kg gavage, control 22%+/−19%, P<0.04", "value": 43, "unit": "%+/−11%"}, {"measurement": "increase in pro-IL-18 message by APAP, whole liver", "setting": "pro-IL-18 transcript", "value": "reduced to normal levels"}, {"measurement": "neutrophil exudates in MSU peritonitis", "setting": "NALP3 inflammasome", "value": "eightfold reduction"}, {"measurement": "expression of IFN-γ, whole liver", "setting": "IFN-γ", "value": "reduced"}, {"measurement": "expression of TNF-α, whole liver", "setting": "TNF-α", "value": "reduced"}, {"measurement": "increase in pro-IL-1β message by APAP, whole liver", "setting": "pro-IL-1β transcript", "value": "reduced to normal levels"}]}
{"smiles": "COC(=O)[C@H](c1ccccc1Cl)N1CCc2sccc2C1", "note": "[clopidogrel]", "values": [{"measurement": "protection against APAP toxicity (survival)", "setting": "wild-type mice [1]; clopidogrel 30 mg/kg gavage every 24 hrs from 48 hours before to 24 hours after APAP, n=15 each, P<0.31", "value": "did not protect"}]}
